Patent US20240285599A1, “Mature-Hepatocyte Transdifferentiation Suppressing Composition” (OSAKA UNIVERSITY, priority 2021, published 2024)

System: HuCCT1 cell xenograft
Test: Xenograft of NIK shRNA-introduced HuCCT1 cells in NOG mouse
Type: in vivo
Settings: HuCCT1 cells with shRNA introduced by lentivirus
Protocol: A histopathological slide was deparaffinized with xylene and ethanol. HE staining was performed with hematoxylin and eosin. In immunostaining, antigen activation was performed by heating in Target Retrieval Solution (Dako, USA), followed by blocking with bovine serum albumin and a reaction through use of a primary antibody at 4° C. overnight. A frozen section was dried at room temperature, and was blocked with BSA (Nacalai Tesque, Inc., Japan), followed by a reaction through use of a primary antibody in VECTASTAIN ABC Rabbit IgG Kit (Vector Laboratories, Inc., USA). DAB Substrate Kit (Vector Laboratories, Inc., USA) was used in a staining reaction. […] The number of Ki67-positive cells in a tumor was counted with ImageJ (Fiji). The immunostaining score of TRAF3 or NIK was calculated by multiplying a staining intensity (of from 0 to 3) by a stained area (%). Human ICC patients were grouped into two groups on the basis of the median immunostaining score of TRAF3 or NIK, and were evaluated for their disease-free survival (DFS) or overall survival (OS). […]
Further, the HuCCT1 cells were infected with negative control shRNA or NIK shRNA by using a lentivirus, and the infected cells were selected with puromycin. […] The measurement of the diameters of the tumors of the mice was started 3 weeks after the transplantation, and their tumor volumes were measured by the same method as that described above. […]

“NIK shRNA: shRNA against NIK, SEQ ID NO: 1, introduced into HuCCT1 cells by a lentivirus (CCGGCUCAGGACUCACGUAGCAUUACUCGAGUAAUGCUACGUGAGUCCUGAGUUUUU)” was tested, and the “number of Ki67-positive cells in tumors versus negative control shRNA-introduced tumors” value (FIG. 24B) was “significantly lower” and the “growth of xenografts derived from the HuCCT1 cells (tumor size)” value (measured from day 21 after transplantation, FIG. 24A) was “significantly suppressed”.
